From patent publication US20100029682A1, “NOVEL CHROMENE AND THIOCHROMENE CARBOXAMIDE DERIVATIVES, METHODS FOR PREPARING SAME AND THERAPEUTIC APPLICATIONS OF SAME” (priority 2006, published 2010)
Counter-ions that a name gives are not always drawn.

O=C(NCCCCN1CCN(c2ccccc2F)CC1)C1=Cc2ccccc2OC1 (as salt: HCl) [Example 3, 2-H-Chromene-3-carboxylic acid {4-[4-(2-fluorophenyl)-piperazin-1-yl]-butyl}-amide]
melting point: 231 °C

O=C(NCCCCN1CCN(c2ccccc2)CC1)C1=Cc2ccccc2OC1 (as salt: HCl) [Example 4, 2H-Chromene-3-carboxylic acid {4-(4-phenylpiperazin-1-yl)-butyl}-amide]
melting point: 239 °C

O=C(NCCCCN1CCN(c2ccc(Cl)cc2)CC1)C1=Cc2ccccc2OC1 (as salt: HCl) [Example 5, 2H-Chromene-3-carboxylic acid {4-[4-(4-chlorophenyl)-piperazin-1-yl]-butyl}-amide]
melting point: 236 °C

O=C(NCCCCN1CCN(c2cccc(Cl)c2)CC1)C1=Cc2ccccc2OC1 (as salt: HCl) [Example 6, 2H-Chromene-3-carboxylic acid {4-[4-(3 chlorophenyl)-piperazin-1-yl]-butyl}-amide]
melting point: 216 °C

O=C(NCCCCN1CCN(c2ccccc2Cl)CC1)C1=Cc2ccccc2OC1 (as salt: HCl) [Example 7, 2H-Chromene-3 carboxylic acid {4-[4-(2-chlorophenyl)-piperazin-1-yl]-butyl}-amide]
melting point: 201 °C

O=C(NCCCCN1CCN(c2ccc(F)cc2)CC1)C1=Cc2ccccc2OC1 (as salt: HCl) [Example 8, 2H Chromene-3-carboxylic acid {4-[4-(4 fluorophenyl)-piperazin-1-yl]-butyl}-amide]
melting point: 243 °C

Cc1ccccc1N1CCN(CCCCNC(=O)C2=Cc3ccccc3OC2)CC1 (as salt: HCl) [Example 9, 2H Chromene-3-carboxylic acid {4-[4-(2-methylphenyl)-piperazin-1-yl]-butyl}-amide]
melting point: 187 °C

Cc1ccc(N2CCN(CCCCNC(=O)C3=Cc4ccccc4OC3)CC2)c(C)c1 (as salt: HCl) [Example 10, 2H-Chromene-3-carboxylic acid {4-[4-(2,4-dimethylphenyl)-piperazin-1-yl]-butyl}-amide]
melting point: 207 °C

Cc1cccc(N2CCN(CCCCNC(=O)C3=Cc4ccccc4OC3)CC2)c1C (as salt: HCl) [Example 11, 2H-Chromene-3-carboxylic acid {4-[4-(2,3-dimethylphenyl)piperazin-1-yl]-butyl}-amide]
melting point: 202 °C

N#Cc1ccccc1N1CCN(CCCCNC(=O)C2=Cc3ccccc3OC2)CC1 (as salt: HCl) [Example 12, 2H-Chromene-3-carboxylic acid {4-[4-(2-cyanophenyl)-piperazin-1-yl]-butyl}-amide]
melting point: 194 °C

N#Cc1ccc(N2CCN(CCCCNC(=O)C3=Cc4ccccc4OC3)CC2)cc1 (as salt: HCl) [Example 13, 2H-Chromene-3-carboxylic acid {4-[4-(4-cyanophenyl)piperazin 1-yl]-butyl}-amide]
melting point: 212 °C

O=C(NCCCCN1CCN(c2ccc(C(F)(F)F)cc2)CC1)C1=Cc2ccccc2OC1 (as salt: HCl) [Example 15, 2-H-Chromene-3-carboxylic acid {4-[4-(4-trifluoromethylphenyl)-piperazin-1-yl]-butyl}-amide]
melting point: 261.9 °C

O=C(NCCCCN1CCN(c2cccc(C(F)(F)F)c2)CC1)C1=Cc2ccccc2OC1 (as salt: HCl) [Example 16, 2H-Chromene-3-carboxylic acid {4-[4-(3-trifluoromethylphenyl)-piperazin-1-yl]-butyl}-amide]
melting point: 234 °C

O=C(NCCCCN1CCN(c2ccccc2C(F)(F)F)CC1)C1=Cc2ccccc2OC1 (as salt: HCl) [Example 17, 2H-Chromene-3 carboxylic acid {4-[4-(2-trifluoromethylphenyl)-piperazin-1-yl]-butyl}-amide]
melting point: 161 °C

O=C(NCCCCN1CCN(c2ccc([N+](=O)[O-])cc2)CC1)C1=Cc2ccccc2OC1 (as salt: HCl) [Example 18, 2H-Chromene 3 carboxylic acid {4-[4-(4-nitrophenyl)-piperazin-1-yl]-butyl}-amide]
melting point: 243 °C

COc1ccccc1N1CCN(CCCCNC(=O)C2=Cc3cc(Cl)ccc3OC2)CC1 (as salt: HCl) [Example 29, 6-Chloro-2H-chromene-3-carboxylic acid {4-[4-(2-methoxyphenyl)-piperazin-1-yl]-butyl}-amide]
melting point: 155 °C

O=C(NCCCCN1CCN(c2ccccc2F)CC1)C1=Cc2cc(Cl)ccc2OC1 (as salt: HCl) [Example 30, 6-Chloro-2H-chromene-3-carboxylic acid {4-[4-(2-fluorophenyl)-piperazin-1-yl]-butyl}-amide]
melting point: 214 °C

N#Cc1cccc(N2CCN(CCCCNC(=O)C3=Cc4cc(Cl)ccc4OC3)CC2)c1 (as salt: HCl) [Example 31, 6-Chloro-2H-chromene-3-carboxylic acid {4-[4-(3-cyanophenyl)-piperazin-1-yl]-butyl}-amide]
melting point: 120 °C (dec.)

O=C(NCCCCN1CCN(c2cccc(Cl)c2Cl)CC1)C1=Cc2ccccc2SC1 (as salt: HCl) [Example 32, 2H-thiochromene-3-carboxylic acid {4-[4-(2,3-dichlorophenyl)piperazin-1-yl]-butyl}-amide]
melting point: 215 °C

O=C(NCCCCN1CCN(c2ccccc2F)CC1)C1=Cc2ccccc2SC1 (as salt: HCl) [Example 33, 2H-Thiochromene-3-carboxylic acid {4-[4-(2-fluorophenyl)piperazin-1-yl]-butyl}-amide]
melting point: 212 °C

COc1ccccc1N1CCN(CCCCNC(=O)C2=Cc3ccccc3SC2)CC1 (as salt: HCl) [Example 34, 2H-Thiochromene-3-carboxylic acid {4-[4-(2-methoxyphenyl)piperazin-1-yl]-butyl}-amide]
melting point: 208 °C

N#Cc1cccc(N2CCN(CCCCNC(=O)C3=Cc4ccccc4SC3)CC2)c1 (as salt: HCl) [Example 35, 2H-Thiochromene-3-carboxylic acid {4-[4-(3-cyanophenyl)-piperazin-1-yl]-butyl}-amide]
melting point: 209 °C

O=C(NCCCCN1CCN(c2cccc(O)c2)CC1)C1=Cc2ccccc2SC1 (as salt: HCl) [Example 41, 2H-Thiochromene-3-carboxylic acid {4-[4-(3-hydroxyphenyl)-piperazin-1-yl]-butyl}-amide]
melting point: 182 to 184 °C

CC1(C)Sc2ccccc2C=C1C(=O)NCCCCN1CCN(c2cccc(C#N)c2)CC1 (as salt: HCl) [Example 44, 2,2-Dimethyl-2H thiochromene-3-carboxylic acid {4-[4-(3-cyanophenyl)-piperazin-1-yl]-butyl}-amide]
melting point: 155 °C

O=C(NCCCCN1CCN(c2cccc(CO)c2)CC1)C1=Cc2ccccc2OC1 (as salt: HCl) [Example 46, 2H-chromene-3-carboxylic acid {4-[4-(3-hydroxymethylphenyl)-piperazin-1-yl]-butyl}-amide]
melting point: 194 °C

COc1ccccc1N1CCN(CCCCNC(=O)C2=Cc3c(Br)ccc(OC)c3OC2)CC1 (as salt: HCl) [Example 50, 5-Bromo-8-methoxy-2H-chromene-3-carboxylic acid {4-[4-(2-methoxyphenyl)piperazin-1-yl]-butyl}-amide]
melting point: 176 °C

COc1ccc(Br)c2c1OCC(C(=O)NCCCCN1CCN(c3cccc(Cl)c3Cl)CC1)=C2 (as salt: HCl) [Example 51, 5-Bromo 8 methoxy-2H-chromene-3-carboxylic acid {4-[4-(2,3-dichlorophenyl)-piperazin-1-yl]-butyl}-amide]
melting point: 205 °C

COc1ccc(Br)c2c1OCC(C(=O)NCCCCN1CCN(c3cccc(C#N)c3)CC1)=C2 (as salt: HCl) [Example 52, 5-Bromo-8-methoxy-2H-chromene-3-carboxylic acid {4-[4-(3-cyanophenyl)piperazin-1-yl]-butyl}-amide]
melting point: 155 °C

O=C(NCCCCN1CCN(c2cccc(O)c2)CC1)C1=Cc2ccccc2OC1 (as salt: HCl) [Example 53, 2H Chromene-3-carboxylic acid {4-[4-(3-hydroxyphenyl)-piperazin-1-yl]-butyl}-amide]
melting point: 199 °C

COc1ccc2c(c1)C=C(C(=O)NCCCCN1CCN(c3ccccc3OC)CC1)CO2 (as salt: HCl) [Example 54, 6-Methoxy-2H-chromene-3-carboxylic acid {4-[4-(2-methoxyphenyl)piperazin-1-yl]-butyl}-amide]
melting point: 165 °C

COc1ccc2c(c1)C=C(C(=O)NCCCCN1CCN(c3cccc(Cl)c3Cl)CC1)CO2 (as salt: HCl) [Example 55, 6-Methoxy-2H-chromene-3-carboxylic acid {4-[4-(2,3-dichlorophenyl)-piperazin-1-yl]-butyl}-amide]
melting point: 205 °C

COc1ccc2c(c1)C=C(C(=O)NCCCCN1CCN(c3cccc(C#N)c3)CC1)CO2 (as salt: HCl) [Example 57, 6-Methoxy-2H-chromene-3-carboxylic acid {4-[4-(3-cyanophenyl)-piperazin-1-yl]-butyl}-amide]
melting point: 159 °C

O=C(NCCCCN1CCN(c2ccccc2O)CC1)C1=Cc2ccccc2OC1 (as salt: HCl) [Example 58, 2H-Chromene-3-carboxylic acid {4-[4-(2-hydroxyphenyl)-piperazin-1-yl]-butyl}-amide]
melting point: 189 °C

O=C(NCCCCN1CCN(c2ccc(O)cc2)CC1)C1=Cc2ccccc2OC1 (as salt: HCl) [Example 59, 2H-Chromene-3-carboxylic acid {4-[4-(4-hydroxyphenyl)-piperazin-1-yl]-butyl}-amide]
melting point: 236 °C

COc1ccccc1N1CCN(CCCCNC(=O)C2=Cc3ccccc3OC2)CC1 (as salt: hydrochloride) [Example 1, 2H-Chromene 3-carboxylic acid {4-[4-(2-methoxyphenyl)-piperazin-1-yl]-butyl}-amide]
melting point: 224 °C

O=C(NCCCCN1CCN(c2cccc(Cl)c2Cl)CC1)C1=Cc2ccccc2OC1 (as salt: hydrochloride) [Example 2, 2H-Chromene-3-carboxylic acid {4-[4-(2,3-dichlorophenyl)-piperazin-1-yl]-butyl}-amide]
melting point: 201 °C
